For the assay, the target named is T1, Mg-chelatase (Arabidopsis thaliana, UniProt Q9FNB0).
T1 construct: isolation of intact chloroplasts from 3-week-old gl1 plants; from tissue; host or cells: intact chloroplasts from 3-week-old Arabidopsis gl1 plants
T1 sequence (Q9FNB0 50-1381): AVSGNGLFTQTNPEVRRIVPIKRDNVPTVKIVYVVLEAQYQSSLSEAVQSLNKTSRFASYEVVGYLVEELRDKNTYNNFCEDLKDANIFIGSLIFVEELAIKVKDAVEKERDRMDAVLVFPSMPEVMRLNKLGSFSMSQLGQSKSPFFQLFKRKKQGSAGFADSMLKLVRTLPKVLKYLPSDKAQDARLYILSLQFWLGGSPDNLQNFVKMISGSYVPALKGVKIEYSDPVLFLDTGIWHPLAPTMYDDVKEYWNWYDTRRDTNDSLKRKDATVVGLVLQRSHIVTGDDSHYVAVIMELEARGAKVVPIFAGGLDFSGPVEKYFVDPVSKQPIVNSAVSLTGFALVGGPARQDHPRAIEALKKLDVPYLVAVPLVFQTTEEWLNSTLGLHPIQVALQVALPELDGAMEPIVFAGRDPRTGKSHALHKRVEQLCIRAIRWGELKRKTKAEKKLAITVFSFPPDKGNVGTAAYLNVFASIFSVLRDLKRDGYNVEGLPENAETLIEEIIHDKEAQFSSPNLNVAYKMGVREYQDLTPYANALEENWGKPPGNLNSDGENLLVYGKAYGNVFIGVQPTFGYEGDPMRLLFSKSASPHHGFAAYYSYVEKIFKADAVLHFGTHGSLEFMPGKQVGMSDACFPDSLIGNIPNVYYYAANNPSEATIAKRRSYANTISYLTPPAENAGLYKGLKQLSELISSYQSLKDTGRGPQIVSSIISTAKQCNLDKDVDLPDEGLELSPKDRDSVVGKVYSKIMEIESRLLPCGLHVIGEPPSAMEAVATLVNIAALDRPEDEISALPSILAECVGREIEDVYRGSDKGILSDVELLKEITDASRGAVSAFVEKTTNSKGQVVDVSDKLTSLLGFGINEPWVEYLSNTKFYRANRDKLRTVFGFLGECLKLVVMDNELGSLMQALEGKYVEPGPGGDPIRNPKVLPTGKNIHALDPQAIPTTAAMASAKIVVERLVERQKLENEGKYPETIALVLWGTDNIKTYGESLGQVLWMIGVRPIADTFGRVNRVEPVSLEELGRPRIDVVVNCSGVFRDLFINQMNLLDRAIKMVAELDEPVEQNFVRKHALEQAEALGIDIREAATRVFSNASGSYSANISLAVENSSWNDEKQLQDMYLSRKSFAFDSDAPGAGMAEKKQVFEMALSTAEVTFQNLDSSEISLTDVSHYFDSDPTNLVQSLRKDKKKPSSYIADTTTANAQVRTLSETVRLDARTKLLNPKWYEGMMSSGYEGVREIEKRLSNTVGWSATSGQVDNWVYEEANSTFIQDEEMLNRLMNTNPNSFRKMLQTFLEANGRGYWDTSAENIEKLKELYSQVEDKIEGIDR
The experiment in a line: Effects of ABA on Mg-chelatase activity in isolated chloroplasts. The format is biochemical. Particulars: chloroplasts pre-incubated 20 min with (±)-ABA. On the procedure: For the effects of ABA on Mg-chelatase activity in vitro, isolation of intact chloroplasts from 3-week-old gl1 plants and assays of both […] and Mg-chelatase activity were done essentially according to the method of Walker and Weinstein (Walker, C. J. et al., Plant Physiol. 95:1189-1196 (1991); Walker, C. J. et al., Proc. Natl. Acad. Sci. USA 88:5789-5793 (1991)). Briefly, the purified chloroplasts with high degree of intactness were pre-incubated for 20 min in the chloroplast isolation buffer supplemented with different concentrations of (±)-ABA. For assaying Mg-chelatase activity, reactions were started by addition of the ABA-pretreated plastids and terminated by addition of ice-cold acetone. All the manipulations were performed under dim light to prevent porphyrin-mediated photooxidative damage. After centrifugation, the green supernatant was reserved and diluted with 4 ml of 75% (v/v) acetone. The fluorescence of the product was read directly in this acetone extract.

Structures are written as SMILES. Entries after “also recorded” stand apart in the source; their conditions may differ.

Our source for the Mg-chelatase activity values is patent US20090044291A1, “DROUGHT-RESISTANT PLANTS AND METHOD FOR PRODUCING THE PLANTS” (D-Helix, priority 2006, published 2009).

As for `CC1=CC(=O)CC(C)(C)C1(O)/C=C/C(C)=C\C(=O)O` (stereo not shown) [ABA, abscisic acid], the Mg-chelatase activity result is listed as “stimulated; also recorded: enhances”.
